Experimental data as given in patent US8106236B2, “Triaryl compounds and derivates thereof” (Ortho-McNeil Pharmaceutical, Inc., priority 2006, dated 2012).

What was measured:
Aβ42 [1] = assay: In vivo Aβ42 lowering, mouse; conditions: oral dose 30 mpk at 4 hr time point, read-out: Mouse Efficacy % Lowering Aβ 42
From the text: (§1) To determine whether acute administration of an Aβ42 lowering agent would reduce Aβ42 levels in vivo, non-transgenic rodents, e.g. mice or rats can be used. Alternatively, two to three month old Tg2576 mice expressing APP695 containing the “Swedish” variant can be used or a transgenic mouse model developed by Dr. Fred Van Leuven (K.U.Leuven, Belgium) and co-workers, with neuron-specific expression of a clinical mutant of the human amyloid precursor protein [V717I] (Moechars et al., 1999 J. Biol. Chem. 274, 6483). […] Animals of this age have high levels of Aβ in the brain but no detectable Aβ deposition. Mice treated with the Aβ42 lowering agent will be examined and compared to those untreated or treated with vehicle and brain levels of soluble Aβ42 and total Aβ would be quantitated by standard techniques, for example, using ELISA. Treatment periods may vary from hours to days and will be adjusted based on the results of the Aβ42 lowering once a time course of onset of effect can be established.
(§2) A typical protocol for measuring Aβ42 lowering in vivo is shown but it is only one of many variations that could be used to optimize the levels of detectable Aβ. For example, aliquots of compounds can be dissolved in DMSO (volume equal to 1/10th of the final formulation volume), vortexed and further diluted (1:10) with a 10% (w/v) hydroxypropyl β cyclodextrin (HBC, Aldrich, Ref N° 33,260-7) solution in PBS, where after they are sonicated for 20 seconds.
(§3) Aβ42 lowering agents may be administered as a single oral dose given three to four hours before sacrifice and analysis or alternatively could be given over a course of days and the animals sacrificed three to four hours after the final dose is given.
(§4) Blood is collected at sacrifice. The blood collection is performed via a heart puncture during anesthesia with a mixture of Ketalar (Ketamin), Rompun (Xylazin 2%) and Atropin (2:1:1) and collected in EDTA treated collection tubes. Blood is centrifuged at 4000 g for 5 minutes at 4° C. and the plasma recovered for analysis.
(§5) The mice are anaesthetized with a mixture of Ketalar (Ketamin), Rompun (Xylazin 2%) and Atropin (2:1:1) and flushed trans-cardially with physiological serum at 4° C.
(§6) The brain is removed from the cranium and hindbrain and forebrain are separated with a cut in the coronal/frontal plane. The cerebellum is removed. The forebrain is divided evenly into left and right hemisphere by using a midline sagital cut.
(§7) One hemisphere is immediately immersed in liquid nitrogen and stored at −70° C. until homogenization for biochemical assays.
(§8) Brains are homogenized using a Potter, a glass tube (detergent free, 2 cm^3) and a mechanical homogenizer (650 rpm). A volume of 6.5×½ brain weight of freshly prepared 20 mM Tris/HCl buffer (pH 8.5) with Proteinase Inhibitors (1 tablet per 50 ml Tris/HCl buffer, Complete™, Roche, Mannheim, Germany) is used as homogenization buffer.
(§9) Samples are transferred from −70° C. into a sample holder with liquid nitrogen and each individual sample is pre-warmed by incubation on the bench for a few seconds prior to homogenization. The homogenates are collected in Beckman centrifuge tubes TLX and collected on ice prior to centrifugation. Between two samples, the Potter and the glass tube are rinsed carefully with distilled water without detergents and dried with absorption paper.
(§10) Samples are centrifuged in a pre-cooled ultracentrifuge (Beckman, Mannheim, Germany) for 1 hour and 20 minutes at 48000 rpm (135.000×g) at 4° C. The supernatant (soluble fraction containing secreted APP and amyloid peptides) is separated from the pellet (membrane fraction containing membrane-bound APP-fragments and plaque-associated amyloid peptides in case of aged mice).
(§11) Small reversed phase columns (C18-Sep-Pack Vac 3 cc cartridges, Waters, Mass., MA) are mounted on a vacuum system and washed with 80% acetonitrile in 0.1% Trifluoroacetic acid (A-TFA) followed with 0.1% TFA twice. […]

Aβ42 [2] = assay: In vivo Aβ42 lowering, rat; conditions: oral dose 30 mpk at 4 hr time point
From the text: as §1, §2, §3, §4, §5, §6, §7, §8, §9, §10, §11

## CC(C)CC(C(=O)O)c1cc(-c2ccc(OC(F)(F)F)cc2)cc(-c2ccc(C(F)(F)F)cc2)c1 (stereo not shown) [Compound 20, 4-Methyl-2-(4-trifluoromethoxy-4″-trifluoromethyl-[1,1′;3′,1″]terphenyl-5′-yl)-pentanoic acid]
Aβ42 [1]
  inhibition in vivo at 30 mg/kg: 50%
Aβ42 [2]
  Rat Efficacy % Lowering Aβ 42: 20%

## CC(C)C[C@@H](C(=O)O)c1cc(-c2ccc(C(F)(F)F)cc2)cc(-c2ccc(C(F)(F)F)cc2)c1 [Compound 39, (R)-2-(4,4″-Bis-trifluoromethyl-[1,1′;3′,1″]terphenyl-5′-yl)-4-methyl-pentanoic acid]
Aβ42 [1]
  inhibition in vivo at 30 mg/kg: 50%
Aβ42 [2]
  Rat Efficacy % Lowering Aβ 42: 27%

## CC(C)C[C@H](C(=O)O)c1cc(-c2ccc(C(F)(F)F)cc2)cc(-c2ccc(C(F)(F)F)cc2)c1 [Compound 40, (S)-2-(4,4″-Bis-trifluoromethyl-[1,1′;3′,1″]terphenyl-5′-yl)-4-methyl-pentanoic acid]
Aβ42 [1]
  inhibition in vivo at 30 mg/kg: 40%
Aβ42 [2]
  Rat Efficacy % Lowering Aβ 42: 40%

## CC(C)C[C@@H](C(=O)O)c1cc(-c2ccc(C(F)(F)F)cc2)cc(-c2cc(C(F)(F)F)cc(C(F)(F)F)c2)c1 [Compound 44, (R)-4-Methyl-2-(3,5,4″-tris-trifluoromethyl-[1,1′;3′,1″]terphenyl-5′-yl)-pentanoic acid]
Aβ42 [1]
  inhibition in vivo at 30 mg/kg: 40%
Aβ42 [2]
  Rat Efficacy % Lowering Aβ 42: −10%

## CC(C)C[C@H](C(=O)O)c1cc(-c2ccc(C(F)(F)F)cc2)cc(-c2ccc(Cl)c(F)c2)c1 [Compound 50, (S)-2-(4-Chloro-3-fluoro-4″-trifluoromethyl-[1,1′;3′,1″]terphenyl-5′-yl)-4-methyl-pentanoic acid]
Aβ42 [1]
  inhibition in vivo at 30 mg/kg: 48%
Aβ42 [2]
  Rat Efficacy % Lowering Aβ 42: 28%
